According to US10799442B2, “Compounds useful in the treatment and/or care of the skin, hair, nails, and/or mucous membranes” (LUBRIZOL ADVANCED MATERIALS, INC., priority 2015, dated 2020):

Columns and labels:
Keratin 14 = test: Keratins expression profile in HEKa with 1 mM CaCl2, Real Time PCR Arrays (Keratin 14); format: cell-based, Human; details: Keratin 14 mRNA, 48 hours
Method: The candidate compound is assayed for its ability to recover the basal keratinocyte state. The keratinocytes of the four layers of the epidermis present different expression patterns of keratins. Basal keratinocytes strongly express Keratin 14 and when differentiated, Keratin 10 is increased. To elucidate the keratinocyte state (basal or differentiated), the expression profile of keratins is analyzed by Real Time PCR Arrays, using a 96-well panel for use with SYBR® Green (BioRad) to detect mRNA expression levels of two keratin genes (Keratins 10 and 14) plus three housekeeping genes, and five controls, in Human Epidermal Keratinocytes from adult (HEKa) (Cascade Biologics).
HEKa cells are seeded at 6.0×10^5 cells/well in 6-well plates and incubated in culture medium Epilife with defined Growth Supplement (EDGS) (Cascade Biologics), for 24 hours at 37° C. in a water-saturated atmosphere of 95% air and 5% CO2. After 24 hours, the medium is removed and the cells are incubated with the synthetic peptide candidate at several concentrations in culture medium that contains 1 mM CaCl2) (Sigma) to induce differentiation of keratinocytes. Cells are incubated with 1 mM CaCl2) in culture medium and this provides a positive control of differentiation. Cells are incubated with culture medium only and these provide basal conditions. After 48 hours of treatment at 37° C. in a CO2 incubator, the cells are lysed directly in the wells, and RNA is purified following the protocol described on the RNeasy Mini kit (Qiagen) according to the manufacture's protocol. After RNA elution, quantification and analysis of purity of RNA samples are performed with a biophotometer (Eppendorf). […] SYBR Green binds to double-stranded DNA molecules and emits fluorescence which is quantified; the fluorescence intensity is proportional to the amount of the product in the PCR reaction. […] Fold change relative to the expression of the sample genes and reference genes is calculated using normalized expression (ΔΔ(Ct)) method using CFX Manager Software (BioRad).

human miRNA145 = test: miRNA145 inhibition on Human Keratinocyte HaCaT cell line, direct quantification by luminescence; format: cell-based; details: HaCaT cells, 0.3 mg/ml, 24 hours, normalized with Snord48; mean of 3 experiments for DD14024, one experiment for the others
Method: The synthetic peptide candidates are evaluated for the inhibition of human miRNA145 expression level using a direct miRNA145 quantification assay based on luminescence detection in a Human Keratinocyte HaCaT cell line.
HaCat cells (Deutsches Krebsforschungszentrum) are seeded at 3.0×10^4 cells/well in 96-clear wells plates and incubated in a culture medium [(DMEM High Glucose with L-Glutamine (Lonza), supplemented with 10% Fetal Bovine Serum (Cultek)] for 24 hours at 37° C. in a water-saturated atmosphere of 95% air and 5% CO2. Then, the cells with the candidates added at 0.3 mg/ml in the culture medium are treated for 24 hours at 37° C., 95% air and 5% CO2. Cells with culture medium only are treated to the same conditions to provide basal conditions. Each cell culture condition is assayed at least in 6 biological replicates. At the end of the incubation period, the cells are lysed and the relative miRNA145 expression level is quantified by a specific assay kit (QuantiGene™ 2.0 miRNA Assay Kit) following manufacturer's instructions (Affymetrix). Briefly, to capture miRNA145, culture lysates are incubated overnight at 46±1° C. in 96-white well plates with the miRNA145 specific probe set (Capture extenders and Label extenders). As an endogenous expression control, the housekeeping Snord48 is quantified using a specific probe set. Next day, the signal amplification tree is built via sequential hybridization at 46±1° C. of three probes: PreAmplifier, Amplifier and Alkaline Phosphatase Label Probe. Then, the signal is detected by adding a chemiluminescent substrate and using a Microplate Luminometer Reader (Clariostar-BMG LabTech).
The miRNA145 expression level result is normalized with the Snord48 expression level for each cell culture condition and the relative decrease in the miRNA145 expression level is calculated respect to basal control (cells treated with culture medium only). The values represent the mean of 3 independent experiments for DD14024, and for the other candidates, represent the result of one experiment.

Substance: Ac-QEMRMQ-OH [DD14024, Ac-Gln-Glu-Met-Arg-Met-Gln-OH]
- Fold induction respect to positive control of differentiation (Keratin 14; 1 mM CaCl2, 0.001 mg/ml): 1.29 ± 0.15
- Fold induction respect to positive control of differentiation (Keratin 14; 1 mM CaCl2, 0.005 mg/ml): 1.36 ± 0.15
- Fold induction respect to positive control of differentiation (Keratin 14; 1 mM CaCl2, 0.01 mg/ml): 1.30 ± 0.09
- Relative level of miRNA145 respect to basal control (%) (human miRNA145): 85.06 ± 6.35%
